Reference: patent publication US11712473B2, “Sensitizer-peptide conjugate” (UNIVERSITY OF ULSTER, priority 2017, dated 2023)
Entries after “also recorded” stand apart in the source; their conditions may differ. RB = Rose Bengal carboxylic acid derivative, attached to the N-terminus

Tests used:
[1] = system: B16-F10-Luc2 melanoma tumour; assay: PDT and SDT treatment of ectopic B16 melanoma tumours in SCID mice (Example 6); type: in vivo; conditions: 100 μL of 100 μM by tail vein injection
Procedure: B16-F10-Luc2 cells (3×10^5) maintained as described in Example 3, were re-suspended in 100 μL of PBS and implanted into the rear dorsum of SCID mice. Four days after implantation tumour measurements were taken using calipers and tumour volume calculated from the geometric mean diameter using the equation: tumour volume=4πR^3/3. The animals were then randomly distributed into […] (n=5): Group 1 involved untreated animals; Group 2 treated with the RB-(KLAKLAK)2 (SEQ ID NO. 1) conjugate and no light; Group 3 treated with the RB-(KLAKLAK)2 (SEQ ID NO. 1) conjugate and light; Group 4 treated with the RB-(KLAKLAK)2 (SEQ ID NO. 1) conjugate and SDT, and Group 5 treated with RB and light. Following induction of anaesthesia (intraperitoneal injection of Hypnorm/Hypnovel), a 100 μL aliquot of PBS containing 100 μM RB or the RB-(KLAKLAK)2 (SEQ ID NO. 1) conjugate was administered by tail vein injection. Group 3 and Group 5: 30 minutes later tumours were exposed to white light for 3 min (68.4 J/cm^−2). […] After treatment, animals were allowed to recover from anaesthesia and tumour volume was monitored for 12 days with animals retreated using the same conditions on days 1, 2, 7 and 9. The % increase in tumour volume was calculated employing the pre-treatment measurements for each group. […]

[2] = system: PANC-1 epithelioid carcinoma cells; assay: PDT of PANC-1 pancreatic cancer cells, MTT cell viability assay; type: cell-based, Human; conditions: 0.05, 0.1, 0.5, 1 μM, 3 h incubation, white light 1 min (22.8 J/cm^2), viability 24 h later
Procedure: (§1) Human PANC-1 epithelioid carcinoma cells were maintained Dulbecco's Modified Eagle Media (DMEM) supplemented with 10% foetal bovine serum (FBS) and 1% penicillin streptomycin. The cells were incubated at 37° C. in a humidified 5% (v/v) CO2 atmosphere. Cells were seeded at a concentration of 5×10^3 cells per well in 96-well tissue culture plate for 24 hours. The medium was removed from each well and the cells incubated for 3 h with drug (100 μL) at concentrations of 0.05 μM, 0.1 μM, 0.5 μM and 1 μM in media. The drug solution was then removed and the cells washed twice with PBS, fresh media was added and selected wells exposed to white light for 1 min (22.8 J/cm^2). Fresh media was then added to each of the wells and cell viability determined 24 h later using a MTT assay. Each experiment was repeated on 3 separate occasions with an n=6 on each occasion.

[3] = system: MCF-7 invasive breast ductal carcinoma cells; assay: PDT of MCF-7 breast cancer cells, MTT cell viability assay; type: cell-based, Human; conditions: 0.05, 0.1, 0.5, 1 μM, 3 h incubation, white light 1 min (22.8 J/cm^2), viability 24 h later
Procedure: as §1, with “MCF-7 invasive breast ductal” for “PANC-1 epithelioid”

[4] = system: B16-F10-Luc2 melanoma cells; assay: PDT of B16 melanoma cells, bioluminescent assay; type: cell-based, murine; conditions: 2.5, 5.0, 10 μM plus white light (22.8 J/cm^2)
Procedure: (§2) Murine melanoma B16-F10 Luc-2 cells were maintained Dulbecco's Modified Eagle Media (DMEM) supplemented with 10% foetal bovine serum (FBS) and 1% penicillin streptomycin. The cells were incubated at 37° C. in a humidified 5% (v/v) CO2 atmosphere. Cells were seeded at a concentration of 4×10^3 cells per well in 96-well tissue culture plate for 24 hours. The medium was removed from each well and the cells incubated for 3 h with drug (100 μL) at concentrations of 2.5 μM, 5.0 μM and 10 μM in media. The drug solution was then removed and selected wells exposed to white light for 1 min (22.8 J/cm^2). Fresh media was then added to each of the wells and cell viability determined 24 h later using a MTT assay. Each experiment was repeated on 3 separate occasions with an n=6 on each occasion.
For the bioluminescent assay, imaging was undertaken using a Xenogen IVIS-100 bioluminescence/fluorescence optical imaging system. Treatments were performed as described above. D-Luciferin at 1.5% w/w was then added to treated wells and bioluminescence intensity was quantified 5 min later using the IVIS-100 system and Living Image Software as per protocol (Caliper LifeSciences). Regions of interest (RoI) were drawn around the wells to evaluate the intensity of signal emitted and expressed photons/second (p/s).

[5] = system: B16-F10-Luc2 melanoma tumour; assay: PDT of B16 melanoma tumour growth in a mouse model (Example 5); type: in vivo, SCID mice; conditions: for tumour growth / tumour size, as part of PDT: 100 μL of 100 μM by tail vein injection, white light 3 min (68.4 J/cm^-2) 30 minutes later, retreated days 1, 2, 7, 9
Procedure: In these studies all animals were treated humanely and in accordance with licensed procedures under the UK Animals (Scientific Procedures) Act 1986. B16-F10-Luc2 cells (3×10^5) maintained as described in Example 3, were re-suspended in 100 μL of PBS and implanted into the rear dorsum of SCID mice. Four days after implantation tumour measurements were taken using calipers and tumour volume calculated from the geometric mean diameter using the equation: tumour volume=4πR^3/3. The animals were then randomly distributed into four groups (n=5): Group 1 involved untreated animals; Group 2 treated with the RB-(KLAKLAK)2 (SEQ ID NO. 1) conjugate and no light; Group 3 treated with the RB-(KLAKLAK)2 (SEQ ID NO. 1) conjugate and light; Group 4 treated with RB and light. Following induction of anaesthesia (intraperitoneal injection of Hypnorm/Hypnovel), a 100 μL aliquot of PBS containing 100 μM RB or the RB-(KLAKLAK)2 (SEQ ID NO. 1) conjugate was administered by tail vein injection. Group 3 and Group 4: 30 minutes later tumours were exposed to white light for 3 min (68.4 J/cm^−2). After treatment, animals were allowed to recover from anaesthesia and tumour volume was monitored for 12 days with animals retreated using the same conditions on days 1, 2, 7 and 9. The % increase in tumour volume was calculated employing the pre-treatment measurements for each group. On day 13, the animals were euthanized and the tumours were removed for analysis.

[6] = system: B16-F10-Luc2 melanoma cells; assay: SDT of B16 melanoma cells, MTT cell viability assay; type: cell-based, murine; conditions: 2.5, 5.0, 10 μM, 3 hours incubation, ultrasound, viability 24 hours later
[7] = system: B16-F10-Luc2 melanoma cells; assay: PDT of B16 melanoma cells, MTT cell viability assay; type: cell-based, murine; conditions: 2.5, 5.0, 10 μM, 3 h incubation, white light 1 min (22.8 J/cm^2), viability 24 h later
Procedure: as §2

Substance: RB-(KLAKLAK)2: conjugate of Rose Bengal and all-D peptide Lys-Leu-Ala-Lys-Leu-Ala-Lys-Lys-Leu-Ala-Lys-Leu-Ala-Lys (SEQ ID NO: 1), no cysteine (KLAKLAKKLAKLAK; not fully specified; Rose Bengal conjugate; all-D amino acids)
- tumour growth, as part of SDT ([1]; ultrasound 3.5 min, 3 W cm-2, 1 MHz, duty cycle 30%): effectively reduced B16-F10-Luc2 melanoma tumour growth
- tumour growth, as part of PDT ([1]; white light 3 min (68.4 J/cm^-2) 30 minutes later): effectively reduced B16-F10-Luc2 melanoma tumour growth; also recorded: PDT was superior

Substance: RB-C(KLAKLAK)2: conjugate of Rose Bengal and peptide Cys-Lys-Leu-Ala-Lys-Leu-Ala-Lys-Lys-Leu-Ala-Lys-Leu-Ala-Lys (SEQ ID NO: 2) ({RB}-CKLAKLAKKLAKLAK-NH2; also: Rose Bengal conjugate, site not given here)
- cell viability (MTT), cell killing as part of PDT [2]: effectively killed PANC-1 epithelioid carcinoma cells
- cell viability (MTT), cell killing as part of PDT [3]: effectively killed MCF-7 invasive breast ductal carcinoma cells
- bioluminescent intensity relative to the control [4]: significant reduction in bioluminescence
- tumour growth / tumour size, as part of PDT [5]: effectively reduced B16-F10-Luc2 melanoma tumour growth; also recorded: inhibited tumour growth to a greater extent
- tumour growth / tumour size, as part of PDT ([5]; listed as conjugate of Rose Bengal and a peptide having the amino acid sequence defined by): significant reduction in tumour size
- tumour growth, as part of SDT ([5]; as stated in the result sentence of Example 5): effectively reduced B16-F10-Luc2 melanoma tumour growth
- cell viability (MTT), cell killing as part of SDT [6]: effectively killed B16-F10-Luc2 melanoma cells
- cell viability (MTT), cytotoxic effect as part of PDT [7]: significantly better than photodynamic therapy using Rose Bengal alone; also recorded: effectively killed B16-F10-Luc2 melanoma cells
- cell viability (MTT), cytotoxic effect as part of PDT ([7]; listed as RB-C(KLAKLAK)2 L enantiomer): more potent cytotoxic effect than the RB-C(KLAKLAK)2 (SEQ ID NO. 2) D enantiomer

Substance: RB-C(KLAKLAK): conjugate of Rose Bengal and peptide Cys-Lys-Leu-Ala-Lys-Leu-Ala-Lys (SEQ ID NO: 6) ({RB}-CKLAKLAK-NH2; not fully specified)
- cell viability (MTT), cell killing as part of PDT [2]: effectively killed PANC-1 epithelioid carcinoma cells
- cell viability (MTT), cell killing as part of PDT [3]: effectively killed MCF-7 invasive breast ductal carcinoma cells
